Source: patent US8202865B2, “Oxadiazole derivatives” (Merck Serono SA, priority 2007, dated 2012)

Biological target: T1, S1P1 (Homo sapiens, UniProt P21453)
T1 construct: expressed in transfected cells; host or cells: CHO cells (membranes)
Test: 35S-GTPγS binding, S1P1 membranes
Assay type: biochemical
Details: membranes from CHO cells expressing S1P1; 60 min 30° C.
Procedure: Receptor binding assay: Membranes were prepared from CHO cells expressing S1P1 or S1P3 for use in ligand and […] binding studies. Cells were suspended in 50 mM TRIS, pH 7.4, 2 mM EDTA, 250 mM Sucrose (buffer A) and 1× Complete protease inhibitor cocktail (Roche), and disrupted at 4° C. by N2 decompression using a cell disruption bomb (Parr Instrument). Following centrifugation at 1000 RPM for 10 min at 4° C., the supernatant was suspended in buffer A and centrifuged again at 19000 RPM for 60 min at 4° C. The pellet was then suspended in 10 mM HEPES, pH 7.4, 1 mM EDTA, 250 mM Sucrose (Buffer B), and 1× Complete EDTA-free protease inhibitor cocktail and homogenized using a potter. Membranes were flash frozen in liquid N2 and stored at −80° C. [33P]sphingosine 1-phosphate (3000 Ci/mmol; American Radiolabeled Chemicals, Inc.) was added to test compounds in DMSO. Membranes and WGA SPA beads (GE Healthcare) were added to give a final volume of 100 μl in 96-well plates with assay concentrations of 25 pM or 10 pM [33P]sphingosine 1-phosphate (respectively for S1P1 or S1P3), 50 mM HEPES, pH 7.5, 5 mM MgCl2, 100 mM NaCl, 0.4% fatty acid-free BSA, 1-5 μg/well of proteins and 100 μg/well of WGA SPA beads. Binding was performed for 60 min at RT on a shaker and bound radioactivity was measured on a PerkinElmer 1450 MicroBeta counter. Specific binding was calculated by subtracting remaining radioactivity in the presence of 1000-fold excess of unlabeled S1P. Binding data were analyzed using the GraphPad Prism program.
Measurements of ^35S-GTPγS Binding: Membranes (1 to 10 μg protein) prepared as described above, were incubated in 96-well Scintiplates (PerkinElmer) with test compounds diluted in DMSO, in 180 μl of 20 mM HEPES, pH 7.4, 10 mM MgCl2, 2 μg/well Saponin, 0.2% fatty acid free BSA (Assay buffer), 140 mM NaCl and 1.7 μM GDP. The assay was initiated with the addition of 20 μl of 1.5 nM [35S]-GTPγS (1100 Ci/mmol; GE Healthcare) in assay buffer. After 60 min incubation at 30° C. on a shaker, plates were centrifuged for 10 min at 2000 RPM. Supernatant was discarded and membrane bound radioactivity was measured on a PerkinElmer 1450 MicroBeta counter. Triplicate samples were averaged and expressed as % response relative to S1P activation in absence of compound (n=2).

T1 sequence (P21453 whole entry, species assumed): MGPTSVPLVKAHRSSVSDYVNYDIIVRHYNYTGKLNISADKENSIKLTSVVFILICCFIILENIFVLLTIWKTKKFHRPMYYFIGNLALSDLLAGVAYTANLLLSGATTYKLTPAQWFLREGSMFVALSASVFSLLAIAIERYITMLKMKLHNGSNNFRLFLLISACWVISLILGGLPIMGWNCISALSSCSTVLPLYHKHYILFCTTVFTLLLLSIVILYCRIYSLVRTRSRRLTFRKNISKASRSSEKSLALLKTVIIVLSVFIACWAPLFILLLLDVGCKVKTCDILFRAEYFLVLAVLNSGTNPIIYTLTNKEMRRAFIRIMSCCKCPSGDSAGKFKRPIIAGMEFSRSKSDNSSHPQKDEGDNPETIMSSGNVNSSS

| SMILES | EC50 [nM] |
| --- | --- |
| Cc1ccccc1-c1ccc(-c2nc(-c3ccc(C(=O)O)c(F)c3)no2)cc1 [Example 5, 2-fluoro-4-[5-(2′-methylbiphenyl-4-yl)-1,2,4-oxadiazol-3-yl]benzoic acid] | 5140 |
| Cc1cc(-c2nc(-c3ccc(C(=O)O)c(F)c3)no2)ccc1-c1ccccc1 [Example 6, 2-fluoro-4-[5-(2-methylbiphenyl-4-yl)-1,2,4-oxadiazol-3-yl]benzoic acid] | 2920 |
| Cc1cc(-c2nc(-c3ccc(C(=O)O)c(F)c3)no2)ccc1-c1ccccc1C(F)(F)F [Example 8, 2-fluoro-4-{5-[2-methyl-2′-(trifluoromethyl)biphenyl-4-yl]-1,2,4-oxadiazol-3-yl}benzoic acid] | 850 |
| O=C(O)c1ccc(-c2noc(-c3ccc(N4CCCCC4)c([N+](=O)[O-])c3)n2)cc1F [Example 14, 2-fluoro-4-[5-(3-nitro-4-piperidin-1-ylphenyl)-1,2,4-oxadiazol-3-yl]benzoic acid] | 5180 |
| Cc1cc(-c2nc(-c3ccc(C(=O)O)c(F)c3)no2)ccc1N1CCCCC1 [Example 16, 2-fluoro-4-[5-(3-methyl-4-piperidin-1-ylphenyl)-1,2,4-oxadiazol-3-yl]benzoic acid] | 2060 |
| O=C(O)c1ccc(-c2noc(-c3ccc(N4CCOCC4)c(C(F)(F)F)c3)n2)cc1F [Example 17, 2-fluoro-4-{5-[4-morpholin-4-yl-3-(trifluoromethyl)phenyl]-1,2,4-oxadiazol-3-yl}benzoic acid] | 3450 |
| Cc1cc(-c2nc(-c3ccc(C(=O)O)c(F)c3)no2)ccc1N1CCOCC1 [Example 18, 2-fluoro-4-[5-(3-methyl-4-morpholin-4-ylphenyl)-1,2,4-oxadiazol-3-yl]benzoic acid] | 7000 |
| COc1ccc(-c2ccc(-c3nc(-c4ccc(C(=O)O)c(F)c4)no3)cc2C)c(OC)c1 [Example 20, 4-[3-(2′,4′-dimethoxy-2-methylbiphenyl-4-yl)-1,2,4-oxadiazol-3-yl]-2-fluorobenzoic acid] | 10900 |
| O=C(O)c1ccc(-c2noc(-c3ccc([N+](=O)[O-])c(N4CCCCC4)c3)n2)cc1F [Example 21, 2-fluoro-4-[5-(4-nitro-3-piperidin-1-ylphenyl)-1,2,4-oxadiazol-3-yl]benzoic acid] | 9740 |
| COc1ccc(OC)c(-c2ccc(-c3nc(-c4ccc(C(=O)O)c(F)c4)no3)cc2C)c1 [Example 24, 4-[3-(2′,5′-dimethoxy-2-methylbiphenyl-4-yl)-1,2,4-oxadiazol-3-yl]-2-fluorobenzoic acid] | 10400 |
| Cc1cc(-c2nc(-c3ccc(C(=O)O)c(F)c3)no2)ccc1-c1c(C)noc1C [Example 25, 4-{5-[4-(3,5-dimethylisoxazol-4-yl)-3-methylphenyl]-1,2,4-oxadiazol-3-yl}-2-fluorobenzoic acid] | 14200 |
| Cc1cc(-c2nc(-c3ccc(C(=O)O)c(F)c3)no2)ccc1-c1ccccc1-c1ccccc1 [Example 31, 2-fluoro-4-[5-(2-methyl-1,1′:2′,1″-terphenyl-4-yl)-1,2,4-oxadiazol-3-yl]benzoic acid] | 2400 |
| Cc1cc(-c2nc(-c3ccc(C(=O)O)c(F)c3)no2)ccc1-c1ccccc1O [Example 32, 2-fluoro-4-[5-(2′-hydroxy-2-methylbiphenyl-4-yl)-1,2,4-oxadiazol-3-yl]benzoic acid] | 2920 |
| CC1CCCCN1c1ccc(-c2nc(-c3ccc(F)c(C(=O)O)c3)no2)cc1C(F)(F)F (centres unmarked) [Example 33, 2-fluoro-5-{5-[4-(2-methylpiperidin-1-yl)-3-(trifluoromethyl)phenyl]-1,2,4-oxadiazol-3-yl}benzoic acid] | 180 |
| CC1CCCCN1c1ccc(-c2nc(-c3ccc(S(N)(=O)=O)cc3)no2)cc1C(F)(F)F (centres unmarked) [Example 38, 4-{5-[4-(2-methylpiperidin-1-yl)-3-(trifluoromethyl)phenyl]-1,2,4-oxadiazol-3-yl}benzenesulfonamide] | 1.5 |
| COc1cc(-c2nc(-c3ccc(S(N)(=O)=O)cc3)no2)ccc1-c1cscc1C [Example 39, 4-{5-[3-methoxy-4-(4-methyl-3-thienyl)phenyl]-1,2,4-oxadiazol-3-yl}benzenesulfonamide] | 2.9 |

| SMILES | EC50 [nM] |
| --- | --- |
| Cc1ccccc1-c1ccc(-c2nc(-c3ccc(S(N)(=O)=O)cc3)no2)cc1C [Example 40, 4-[5-(2,2′-dimethylbiphenyl-4-yl)-1,2,4-oxadiazol-3-yl]benzenesulfonamide] | 10 |
| COCC1CCCN1c1ncc(-c2nc(-c3ccc(S(N)(=O)=O)cc3)no2)cc1C (centres unmarked) [Example 41, 4-(5-{6-[2-(methoxymethyl)pyrrolidin-1-yl]-5-methylpyridin-3-yl}-1,2,4-oxadiazol-3-yl)benzenesulfonamide] | 1090 |
| Cc1ccccc1-c1ccc(-c2nc(-c3ccc(C(=O)O)cc3)no2)cc1C [Example 42, 4-[5-(2,2′-dimethylbiphenyl-4-yl)-1,2,4-oxadiazol-3-yl]benzoic acid] | 1690 |
| Cc1ccccc1-c1ccc(-c2nc(-c3ccc(O)c(C(=O)O)c3)no2)cc1C [Example 43, 5-[5-(2,2′-dimethylbiphenyl-4-yl)-1,2,4-oxadiazol-3-yl]-2-hydroxybenzoic acid] | 4360 |
| Cc1cc(-c2nc(-c3ccc(O)c(C(=O)O)c3)no2)ccc1-c1cscc1C [Example 44, 2-hydroxy-5-{5-[3-methyl-4-(4-methyl-3-thienyl)phenyl]-1,2,4-oxadiazol-3-yl}benzoic acid] | 1450 |
| COc1cc(C(=O)O)ccc1-c1noc(-c2ccc(-c3ccccc3C)c(C)c2)n1 [Example 45, 4-[5-(2,2′-dimethylbiphenyl-4-yl)-1,2,4-oxadiazol-3-yl]-3-methoxybenzoic acid] | 4480 |
| COc1cc(-c2noc(-c3ccc(-c4ccccc4C)c(C)c3)n2)ccc1C(=O)O [Example 46, 4-[5-(2,2′-dimethylbiphenyl-4-yl)-1,2,4-oxadiazol-3-yl]-2-methoxybenzoic acid] | 2270 |
| CC(C)COc1ncc(-c2nc(-c3ccc(OCC(=O)O)c(F)c3)no2)cc1Cl [Example 49, {4-[5-(5-chloro-6-isobutoxypyridin-3-yl)-1,2,4-oxadiazol-3-yl]-2-fluorophenoxy}acetic acid] | 1280 |
| C#CCOc1ncc(-c2nc(-c3ccc(OCC(=O)O)c(F)c3)no2)cc1Cl [Example 51, (4-{5-[5-chloro-6-(prop-2-yn-1-yloxy)pyridin-3-yl]-1,2,4-oxadiazol-3-yl}-2-fluorophenoxy)acetic acid] | 2020 |
| O=C(O)COc1ccc(-c2noc(-c3cnc(OCC4CC4)c(Cl)c3)n2)cc1F [Example 52, (4-{5-[5-chloro-6-(cyclopropylmethoxy)pyridin-3-yl]-1,2,4-oxadiazol-3-yl}-2-fluorophenoxy)acetic acid] | 1540 |
| Cc1ccccc1-c1ccc(-c2nc(-c3ccc(C(=O)O)c(F)c3)no2)cc1CO [Example 58, 2-fluoro-4-{5-[2-(hydroxymethyl)-2′-methylbiphenyl-4-yl]-1,2,4-oxadiazol-3-yl}benzoic acid] | 2930 |
| Cc1ccccc1-c1ccc(-c2nc(-c3ccc(C(=O)O)c(F)c3)no2)cc1COCC(C)C [Example 60, 2-fluoro-4-{5-[2-(isobutoxymethyl)-2′-methylbiphenyl-4-yl]-1,2,4-oxadiazol-3-yl}benzoic acid] | 3700 |
| Cc1ccccc1-c1ccc(-c2nc(-c3ccc(C(=O)O)c(F)c3)no2)cc1COCC1CC1 [Example 61, 4-(5-{2-[(cyclopropylmethoxy)methyl]-2′-methylbiphenyl-4-yl}-1,2,4-oxadiazol-3-yl)-2-fluorobenzoic acid] | 2240 |
| CC(C)COc1ccc(-c2nc(-c3ccc(C(=O)O)c(F)c3)no2)cc1NS(C)(=O)=O [Example 64, 2-fluoro-4-(5-{4-isobutoxy-3-[(methylsulfonyl)amino]phenyl}-1,2,4-oxadiazol-3-yl)benzoic acid] | 4720 |
| CC(=O)Nc1cc(-c2nc(-c3ccc(C(=O)O)c(F)c3)no2)ccc1N1CCCCC1C (centres unmarked) [Example 65, 4-{5-[3-(acetylamino)-4-(2-methylpiperidin-1-yl)phenyl]-1,2,4-oxadiazol-3-yl}-2-fluorobenzoic acid] | 10400 |
| CCCN(CC(C)C)c1ccc(-c2nc(-c3ccc(C(=O)O)c(F)c3)no2)cc1NS(C)(=O)=O [Example 66, 2-fluoro-4-(5-{4-[isobutyl(propyl)amino]-3-[(methylsulfonyl)amino]phenyl}-1,2,4-oxadiazol-3-yl)benzoic acid] | 10000 |
